Measurements reported in patent US4393178A, “Fast crystallizing polyester compositions” (priority 1979, dated 1983).
Counter-ions that a name gives are not always drawn. Like-named read-outs stand apart in the source and are kept apart here. Values belong to the molecule of their own block, whether it stands above or below them.

Experiments:
End group determination = format: physicochemical
Description: The numbers of hydroxyl and carboxyl groups were also determined according to the procedure given in this paper.
[…] The samples were evaluated to determine Tn(composition-Tn(polyester), the total number of end groups, the number of carboxylate groups and the number of hydroxyl and carboxyl groups.

[1] = Crystallisation peak temperature on heating (Tn), DSC; format: physicochemical; conditions: for Tn(comp.)-Tn(PET) (16° C./min): 1% salt deposited from solution on PET chip; for Tn(comp.)-Tn(PET) (16° C./min) / Tn (16° C./min): pressed 280 °C 1 minute, heating rate 16 °C/minute; for Tn (16° C./min): 1% salt deposited from solution on PET; for Tn(composition)-Tn(polyester): PET I.V. 0.73 + 1% salt, 2-roll mill 300 °C 2 min, 10 °C/minute; for Tn: 1% salt on PET I.V. 0.73 from solution; for nucleating activity: in words
Description: In one such DSC technique the crystallisation peak temperature difference, Tn(composition)--Tn(polyester) is determined by measuring the crystallisation peak temperatures on heating for the composition in comparison with the polyester of the composition not containing the ionisable salt. The detailed procedure is as follows. Compositions were prepared from the polyester and the additive by mixing on a 2-roll mill at 300° C. for 2 minutes. The sample was taken from the mill and pressed into a film in a compression moulding machine. 10 mg samples of the composition were placed in a capsule, rapidly heated to 290° C. and maintained at that temperature for 1 minute. The capsule was then dropped into water to quench the polymer and prevent crystallisation. The sample was then placed in a Perkin Elmer DSC 2 machine and heated at a rate of 10° C./minute until reaching a temperature of 290° C. The crystallisation peak temperature observed on this heating cycle is recorded and compared with the value for the polyester not containing the additive.
Samples of polyethylene terephthalate (I.V. =0.73) containing 1% of the salts listed in Table 2 were prepared by compounding at 300° C. on a 2-roll mill for 2 minutes. The samples were evaluated to determine Tn(composition-Tn(polyester), the total number of end groups, the number of carboxylate groups and the number of hydroxyl and carboxyl groups.
The salts listed in Table 3 were deposited from solution on the surface of polyethylene terephthalate chip to give a concentration of 1% by weight of salt. The product was dried under vcuum at 96° C. for 3 hours. The compositions were pressed into film using a temperature of 280° C. for 1 minute. The DSC measurements were made after quenching from the melt to prevent crystallisation and using a heating rate of 16° C./minute.
1% by weight of the sodium salt of saccharin was deposited on the surface of granules of a polyethylene terephthalate homopolymer of I.V. =0.73 by evaporating an aqueous solution of the salt from the granules by drying at 96° C. under vacuum for 3 hours. The granules obtained were compression moulded into film by pressing at 280° C. for 60 second. The film was used for measurements of Tn at a heating rate of 16° C./minute.
The effect of the salts listed in Table 4 was determined by taking granules of a polymer of poly(ethylene terephthalate) homopolymer having an intrinsic viscosity of 0.73 and evaporating a solution of the salt in methanol or water from the surface of the granules by drying at 96° C. under vacuum for 3 hours. The proportions of polymer and solution used were such as to give a concentration of 1% of salt by weight of the final dry composition. The granules obtained were compression-moulded into film at 280° C. for various periods of time. The film was used for measurement of Tn as hereinbefore described.
Two samples of polyethylene terephthalate chip (I.V. =0.73) were coated from solution with 1% of the sodium salt of o-hydroxybenzoic acid and the disodium salt of the same acid respectively. After drying for 3 hours in a vacuum oven at 95° C. films were prepared by pressing the products for 1 minute at 280° C.

[2] = Degradation constant K (melt degradation performance); format: physicochemical; set-up: unit not given here; conditions: 1% salt in PET, 2-roll mill 270 °C 5 min; molten state 290 °C
Description: The melt degradation performance is a measure of the extent of degradation under molten conditions. A convenient method of quantifying the performance is by measuring the "K value". A method for determining this value in the molten state using an Instron Capillary rheometer is given in a paper by J. Devaux et al in Makromol.
This method is carried out on samples prepared by reacting the salt with the polyester on a 2 roll-mill at a temperature above the melting point of the polyester for 5 minutes and then pressing the product obtained into a 2 mm thick sheet using the same temperature for 3 minutes before cooling to room temperature. The method is described for polyethylene terephthalate but can be readily adapted for other polyesters.
For polyethylene terephthalate the K value in the presence of salt should be less than 60.

[3] = ΔT = Tc(cooling) - Tn(heating), DSC; format: physicochemical; conditions: 1% salt in PET, 2-roll mill 270 °C 5 min; 10 °C/minute
Description: An alternative method for assessing the effectiveness of nucleation of an additive is to compare the difference between the value of the crystallisation peak on cooling (Tc) with that on heating (Tn) for a composition containing an ionisable salt. The value obtained from this comparison, Tc(cooling) -Tn(heating) is termed ΔT. […] Samples of polyester together with 1% of the salt under test were mixed in a 2-roll mill at 270° C. for 5 minutes. The sample produced was pressed into 2 mm thick sheets at 270° C. for 3 minutes and then cooled to room temperature. 10 mg of the sample was placed in a capsule and rapidly heated to 290° C. After maintaining this temperature for 1 minute the capsule was quenched in water. The crystallisation peak temperatures on heating (Tn) and cooling (Tc) were determined using heating and cooling rates of 10° C./minute on a Perkin Elmer DSC 2 machine.

[4] = Solubility parameter δ of the acid
[5] = Half-crystallisation time (t1/2), isothermal DSC; format: physicochemical
Description: A DSC 2 Perkin Elmer scanning calorimeter was used.
10 mg of the sample of polymer material are placed in a capsule and introduced into the apparatus, wherein the sample is quickly heated to a temperature of 290° C. at which it is maintained during 1 minute.
The molten polymer material is then very quickly cooled by means of liquid air (at a rate of 320° C. per minute) until the crystallisation temperature is reached.
The crystallisation isotherm is registered on a temperature-time graph and the peak appearing on the registered isotherm is taken as the half-crystallisation time (t1/2).

[6] = 1% salt deposited from solution on PET chip, pressed 280 °C 1 minute
[7] = PET I.V. 0.73 + 1% salt, 2-roll mill 300 °C 2 min

End Groups --COOH (End group determination; [6]): 31 moles × 10^-6 g^-1
End Groups --OH (End group determination; [6]): 61 moles × 10^-6 g^-1
End Groups Total from solution I.V. (End group determination; [6]): 107 moles × 10^-6 g^-1
Tn(comp.)-Tn(PET) (16° C./min) [1]: 16 °C
Tn (16° C./min) [1]: 131 °C
Compound: O=C(O)c1ccc(-c2ccccc2)cc1 [Sodium salt of 4-biphenylcarboxylic acid]

Compound: O=C([O-])c1cc(O)cc(O)c1.[Na+] [sodium 3,5-dihydroxybenzoate]
% of carboxylate end group (End group determination; [7]): 0%
End Groups Carboxylate (End group determination; [7]): 0 moles × 10^-6 g^-1
End Groups Total from solution I.V. (End group determination; [7]): 138 moles × 10^-6 g^-1
Tn(composition)-Tn(polyester) [1]: 7 °C

Compound: CC(C)(C)c1ccc(C(=O)[O-])cc1.[Na+] [sodium para-tert-butylbenzoate, reference compound]
K [2]: 109
ΔT [3]: 92.5 °C
% of carboxylate end group (End group determination; [7]): 2.5%
End Groups --COOH (End group determination; [7]): 83 moles × 10^-6 g^-1
End Groups --OH (End group determination; [7]): 56 moles × 10^-6 g^-1
End Groups Carboxylate (End group determination; [7]): 4 moles × 10^-6 g^-1
End Groups Total from solution I.V. (End group determination; [7]): 157 moles × 10^-6 g^-1
δ × pKH.sbsb.2O ([4]; product for the acid): 62
t1/2 (sec) 110° C. [5]: 150 s
t1/2 (sec) 120° C. [5]: 55 s
Tn(composition)-Tn(polyester) [1]: 19 °C

Compound: O=C([O-])Cc1ccccc1.[Na+] [sodium phenylacetate]
K [2]: less than 15
t1/2 (sec) 110° C. [5]: 55 s
t1/2 (sec) 120° C. [5]: 30 s

Compound: O=C([O-])c1cccc2cccc(Br)c12.[Na+] [Sodium 8-bromo-1-naphthoate]
Tn (16° C./min) [1]: 124 °C

Compound: O=C(O)c1ccccc1 [sodium benzoate, reference compound]
K [2]: 88
ΔT [3]: 99 °C
% of carboxylate end group (End group determination; [7]): 9.6%
End Groups --COOH (End group determination; [7]): 44 moles × 10^-6 g^-1
End Groups --OH (End group determination; [7]): 54 moles × 10^-6 g^-1
End Groups Carboxylate (End group determination; [7]): 13 moles × 10^-6 g^-1
End Groups Total from solution I.V. (End group determination; [7]): 136 moles × 10^-6 g^-1
δ × pKH.sbsb.2O [4]: 55
t1/2 (sec) 110° C. [5]: 90 s
t1/2 (sec) 120° C. [5]: 45 s
Tn ([1]; time in press 30 sec at 280 °C): 115.5 °C
Tn ([1]; time in press 60 sec at 280 °C): 117 °C
Tn(composition)-Tn(polyester) [1]: 27 °C

End Groups --COOH (End group determination; [6]): 31 moles × 10^-6 g^-1
End Groups --OH (End group determination; [6]): 60 moles × 10^-6 g^-1
End Groups Total from solution I.V. (End group determination; [6]): 121 moles × 10^-6 g^-1
Tn(comp.)-Tn(PET) (16° C./min) [1]: 25 °C
Tn (16° C./min) [1]: 120 °C
Compound: O=C(O)c1ccc2ccccc2c1 [Sodium salt of 2-naphthoic acid]

Compound: O=[PH](O)C1CCCCC1 [Calcium cyclohexyl phosphinate]
Tn (16° C./min) [1]: 129 °C

Compound: O=C([O-])c1ccc(O)cc1.[Na+] [sodium p-hydroxybenzoate]
% of carboxylate end group (End group determination; [7]): 2.7%
End Groups --COOH (End group determination; [7]): 102 moles × 10^-6 g^-1
End Groups --OH (End group determination; [7]): 64 moles × 10^-6 g^-1
End Groups Carboxylate (End group determination; [7]): 4 moles × 10^-6 g^-1
End Groups Total from solution I.V. (End group determination; [7]): 148 moles × 10^-6 g^-1
Tn(composition)-Tn(polyester) [1]: 20 °C

Compound: COC(=O)c1ccc(C(=O)[O-])cc1.[K+] [Potassium monomethyl terephthalate, reference compound]
Tn ([1]; time in press 30 sec at 280 °C): 138.5 °C
Tn ([1]; time in press 60 sec at 280 °C): 137.5 °C
nucleating activity [1]: only slight nucleating activity

Compound: COC(=O)c1ccc(C(=O)[O-])cc1.[Na+] [Sodium monomethyl terephthalate, reference compound]
Tn ([1]; time in press 60 sec at 280 °C): 132 °C
nucleating activity [1]: only slight nucleating activity

Compound: O=C([O-])c1c(O)cccc1O.[Na+] [sodium 2,6-dihydroxybenzoate]
% of carboxylate end group (End group determination; [7]): 3.9%
End Groups --COOH (End group determination; [7]): 55 moles × 10^-6 g^-1
End Groups --OH (End group determination; [7]): 69 moles × 10^-6 g^-1
End Groups Carboxylate (End group determination; [7]): 5 moles × 10^-6 g^-1
End Groups Total from solution I.V. (End group determination; [7]): 127 moles × 10^-6 g^-1
Tn(composition)-Tn(polyester) [1]: 24 °C

End Groups --COOH (End group determination; [6]): 26 moles × 10^-6 g^-1
End Groups --OH (End group determination; [6]): 60 moles × 10^-6 g^-1
End Groups Total from solution I.V. (End group determination; [6]): 133 moles × 10^-6 g^-1
Tn(comp.)-Tn(PET) (16° C./min) [1]: 22 °C
Tn (16° C./min) [1]: 121 °C
Compound: O=C(O)c1ccccc1-c1ccccc1 [Sodium salt of 2-biphenylcarboxylic acid]

Tn ([1]; time in press 30 sec at 280 °C): 142.5 °C
Tn ([1]; time in press 60 sec at 280 °C): 144.5 °C
Compound: O=C(O)c1ccccc1C(=O)O [Potassium hydrogen orthophthalate, reference compound]

Compound: O=C([O-])c1ccc(C(=O)[O-])cc1.[Na+].[Na+] [Disodium terephthalate, reference compound]
Tn ([1]; time in press 30 sec at 280 °C): 141 °C
Tn ([1]; time in press 60 sec at 280 °C): 140 °C
nucleating activity [1]: only slight nucleating activity

Compound: O=C([O-])c1cccc2c(O)cccc12.[Na+] [Sodium 5-hydroxy-1-naphthoate]
Tn (16° C./min) [1]: 132 °C

Compound: COc1ccc2cc(C(=O)[O-])ccc2c1.[Na+] [Sodium 6-methoxy-2-naphthoate]
Tn (16° C./min) [1]: 119 °C

Compound: O=[PH](O)c1ccccc1 [Sodium phenyl phosphinate]
End Groups --COOH (End group determination; [6]): 25 moles × 10^-6 g^-1
End Groups --OH (End group determination; [6]): 66 moles × 10^-6 g^-1
Tn (16° C./min) [1]: 117 °C

Compound: O=C([O-])Cc1cccc2ccccc12.[Na+] [sodium 1-naphthylacetate]
K [2]: 30
t1/2 (sec) 110° C. [5]: 55 s
t1/2 (sec) 120° C. [5]: 30 s

Compound: O=C([O-])c1c(Cl)cccc1Cl.[Na+] [sodium 2,6-dichlorobenzoate]
% of carboxylate end group (End group determination; [7]): 9.8%
End Groups --COOH (End group determination; [7]): 51 moles × 10^-6 g^-1
End Groups --OH (End group determination; [7]): 56 moles × 10^-6 g^-1
End Groups Carboxylate (End group determination; [7]): 15 moles × 10^-6 g^-1
End Groups Total from solution I.V. (End group determination; [7]): 153 moles × 10^-6 g^-1
Tn(composition)-Tn(polyester) [1]: 25 °C

K [2]: 20
ΔT [3]: 106 °C
δ × pKH.sbsb.2O ([4]; product for the acid): 30
t1/2 (sec) 110° C. ([5]; 110 °C, 1% salt in PET, 2-roll mill 270 °C 5 min, after melting 1 minute at 290 °C): 65 s
t1/2 (sec) 120° C. ([5]; 120 °C, 1% salt in PET, 2-roll mill 270 °C 5 min, after melting 1 minute at 290 °C): 45 s
Compound: O=C(O)c1ccccc1[N+](=O)[O-] [ortho-nitrobenzoic acid]

Compound: O=C([O-])c1ccc2cc(O)ccc2c1.[Na+] [Sodium 6-hydroxy-2-naphthoate]
Tn (16° C./min) [1]: 116 °C

Compound: O=C([O-])c1cccc2ccccc12.[Na+]
Tn (16° C./min) [1]: 111 °C
